Counter-ions that a name gives are not always drawn.
Tests used:
[1] = biological target: T1, P4HA1 (Homo sapiens, UniProt P13674); test: Bead competition binding assay, immobilized compound C, HL-60 nuclear extract; settings: 200 µM free compound C, read-out: Fold change versus DMSO control
T1 construct: endogenous in cells
Description: (§1) The preparation of HL-60 nuclear lysates, capturing of dioxygenases from cell lysate and the protein identification by Mass Spectrometry was performed as described in example 2.
(§2) Seven different dioxygenases were identified. […] Table 8: Identified dioxygenases with compound C from HL-60 nuclear extract

[2] = biological target: T2, PLOD1 (Homo sapiens, UniProt Q02809); test: as above; settings: 200 µM free compound C, read-out: Fold change versus DMSO control
T2 construct: capturing and identification of dioxygenases from nuclear protein extracts; endogenous in cells
T2 sequence (Q02809 19-727): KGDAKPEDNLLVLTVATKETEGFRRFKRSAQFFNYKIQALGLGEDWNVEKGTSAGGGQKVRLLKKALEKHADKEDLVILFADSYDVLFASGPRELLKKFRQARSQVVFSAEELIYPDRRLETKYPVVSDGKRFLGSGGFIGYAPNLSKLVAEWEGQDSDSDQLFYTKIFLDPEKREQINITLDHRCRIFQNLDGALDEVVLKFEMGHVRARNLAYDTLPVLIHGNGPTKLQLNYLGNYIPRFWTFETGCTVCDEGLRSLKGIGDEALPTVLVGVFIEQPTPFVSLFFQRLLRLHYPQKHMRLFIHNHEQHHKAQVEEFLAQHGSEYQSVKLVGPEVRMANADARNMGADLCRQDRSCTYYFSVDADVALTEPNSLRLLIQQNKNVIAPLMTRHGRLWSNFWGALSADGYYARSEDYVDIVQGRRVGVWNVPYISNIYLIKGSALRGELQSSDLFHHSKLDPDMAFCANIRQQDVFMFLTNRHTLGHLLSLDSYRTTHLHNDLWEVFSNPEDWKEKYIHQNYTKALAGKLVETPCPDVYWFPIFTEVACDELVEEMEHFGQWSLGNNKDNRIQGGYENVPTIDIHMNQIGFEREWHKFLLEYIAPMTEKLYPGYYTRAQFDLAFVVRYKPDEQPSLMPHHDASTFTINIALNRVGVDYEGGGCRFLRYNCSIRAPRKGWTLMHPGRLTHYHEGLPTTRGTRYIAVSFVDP
Description: as §1, §2

[3] = biological target: T3, EGLN1 (Homo sapiens, UniProt Q9GZT9); test: as above; settings: 200 µM free compound C, read-out: Fold change versus DMSO control
T3 construct: endogenous in cells
Description: as §1, §2

[4] = biological target: T4, C17ORF101 (Homo sapiens, UniProt Q6PK18); test: as above; settings: 200 µM free compound C, read-out: Fold change versus DMSO control
T4 construct: capturing and identification of dioxygenases from nuclear protein extracts; endogenous in cells
T4 sequence (Q6PK18 1-331 isoform Q6PK18-2): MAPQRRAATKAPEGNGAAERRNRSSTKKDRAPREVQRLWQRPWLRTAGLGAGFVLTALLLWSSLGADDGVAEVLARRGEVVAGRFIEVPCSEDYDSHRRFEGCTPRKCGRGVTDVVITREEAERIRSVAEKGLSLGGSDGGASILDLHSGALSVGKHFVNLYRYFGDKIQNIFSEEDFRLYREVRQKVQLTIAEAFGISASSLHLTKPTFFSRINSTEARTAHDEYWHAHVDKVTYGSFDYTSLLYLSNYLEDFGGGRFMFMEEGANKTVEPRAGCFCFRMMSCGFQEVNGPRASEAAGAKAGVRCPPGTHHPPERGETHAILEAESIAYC
Description: as §1, §2

[5] = biological target: T5, ALKBH3 (Homo sapiens, UniProt Q96Q83); test: as above; settings: 200 µM free compound C, read-out: Fold change versus DMSO control
T5 construct: capturing and identification of dioxygenases from nuclear protein extracts; endogenous in cells
T5 sequence (Q96Q83 1-286): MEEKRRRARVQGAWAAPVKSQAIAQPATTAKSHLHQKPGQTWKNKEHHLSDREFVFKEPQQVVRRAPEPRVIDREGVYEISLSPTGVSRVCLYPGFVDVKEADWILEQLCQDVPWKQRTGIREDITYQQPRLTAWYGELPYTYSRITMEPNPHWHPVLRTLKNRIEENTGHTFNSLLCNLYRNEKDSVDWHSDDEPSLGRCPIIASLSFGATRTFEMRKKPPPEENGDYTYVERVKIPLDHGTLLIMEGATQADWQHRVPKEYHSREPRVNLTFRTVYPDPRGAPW
Description: as §1, §2

[6] = biological target: T6, LEPRE1 (Homo sapiens, UniProt Q32P28); test: as above; settings: 200 µM free compound C, read-out: Fold change versus DMSO control
T6 construct: capturing and identification of dioxygenases from nuclear protein extracts; endogenous in cells
T6 sequence (Q32P28 23-736): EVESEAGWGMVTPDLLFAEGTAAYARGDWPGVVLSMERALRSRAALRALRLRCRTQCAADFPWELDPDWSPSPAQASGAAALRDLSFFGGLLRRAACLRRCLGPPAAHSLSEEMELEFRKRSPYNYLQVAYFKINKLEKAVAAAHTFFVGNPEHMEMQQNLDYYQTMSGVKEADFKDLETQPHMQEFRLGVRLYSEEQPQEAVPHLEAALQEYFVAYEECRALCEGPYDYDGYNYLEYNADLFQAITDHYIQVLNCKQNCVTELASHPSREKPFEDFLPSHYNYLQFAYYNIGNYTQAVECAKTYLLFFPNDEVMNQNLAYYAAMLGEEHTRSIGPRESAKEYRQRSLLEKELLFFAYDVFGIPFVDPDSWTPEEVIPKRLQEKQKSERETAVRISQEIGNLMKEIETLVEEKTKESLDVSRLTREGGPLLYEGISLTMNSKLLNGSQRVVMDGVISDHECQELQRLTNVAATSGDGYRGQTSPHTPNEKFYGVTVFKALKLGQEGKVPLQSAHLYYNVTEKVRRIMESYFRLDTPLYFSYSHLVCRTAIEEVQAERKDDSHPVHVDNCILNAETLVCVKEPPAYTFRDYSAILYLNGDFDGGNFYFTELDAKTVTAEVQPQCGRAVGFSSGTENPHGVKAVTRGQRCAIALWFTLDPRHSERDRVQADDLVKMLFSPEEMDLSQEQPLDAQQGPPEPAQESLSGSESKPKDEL
Description: as §1, §2

[7] = biological target: T7, LEPREL2 (Homo sapiens, UniProt Q8IVL6); test: as above; settings: 200 µM free compound C, read-out: Fold change versus DMSO control
T7 construct: capturing and identification of dioxygenases from nuclear protein extracts; endogenous in cells
T7 sequence (Q8IVL6 21-736): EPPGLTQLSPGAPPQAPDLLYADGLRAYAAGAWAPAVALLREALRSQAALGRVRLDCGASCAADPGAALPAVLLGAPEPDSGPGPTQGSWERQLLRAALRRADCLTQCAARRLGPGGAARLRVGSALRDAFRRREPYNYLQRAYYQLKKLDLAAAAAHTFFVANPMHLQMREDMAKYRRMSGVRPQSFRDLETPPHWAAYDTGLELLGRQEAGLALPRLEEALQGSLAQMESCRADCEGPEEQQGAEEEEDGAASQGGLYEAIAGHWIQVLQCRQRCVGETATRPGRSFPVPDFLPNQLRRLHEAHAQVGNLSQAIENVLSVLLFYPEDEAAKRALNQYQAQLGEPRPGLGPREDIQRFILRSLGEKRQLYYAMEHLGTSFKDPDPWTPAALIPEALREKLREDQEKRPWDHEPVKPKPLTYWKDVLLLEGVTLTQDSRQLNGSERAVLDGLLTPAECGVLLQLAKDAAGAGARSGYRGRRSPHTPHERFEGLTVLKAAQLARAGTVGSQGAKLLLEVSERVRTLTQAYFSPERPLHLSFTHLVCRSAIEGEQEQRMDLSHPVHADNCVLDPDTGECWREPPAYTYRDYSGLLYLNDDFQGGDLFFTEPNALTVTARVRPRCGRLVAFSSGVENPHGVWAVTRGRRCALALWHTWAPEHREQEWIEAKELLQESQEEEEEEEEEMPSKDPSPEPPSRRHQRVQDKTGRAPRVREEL
Description: as §1, §2

[8] = biological target: T1, P4HA1; test: Bead competition binding assay, immobilized compound B, HL-60 nuclear extract; settings: 200 µM free compound B, read-out: Fold change versus DMSO control
Description: as §1
(§3) Seven different dioxygenases were identified. […] Table 7: Identified dioxygenases with compound B from HL-60 nuclear extract

[9] = biological target: T3, EGLN1; test: as above; settings: 200 µM free compound B, read-out: Fold change versus DMSO control
Description: as §1, §3

[10] = biological target: T4, C17ORF101; test: as above; settings: 200 µM free compound B, read-out: Fold change versus DMSO control
Description: as §1, §3

[11] = biological target: T5, ALKBH3; test: as above; settings: 200 µM free compound B, read-out: Fold change versus DMSO control
Description: as §1, §3

[12] = biological target: T6, LEPRE1; test: as above; settings: 200 µM free compound B, read-out: Fold change versus DMSO control
Description: as §1, §3

[13] = biological target: T8, OGFOD2 (Homo sapiens, UniProt Q6N063); test: as above; settings: 200 µM free compound B, read-out: Fold change versus DMSO control
T8 construct: endogenous in cells; host or cells: HL-60 nuclear extract
T8 sequence (Q6N063 1-350): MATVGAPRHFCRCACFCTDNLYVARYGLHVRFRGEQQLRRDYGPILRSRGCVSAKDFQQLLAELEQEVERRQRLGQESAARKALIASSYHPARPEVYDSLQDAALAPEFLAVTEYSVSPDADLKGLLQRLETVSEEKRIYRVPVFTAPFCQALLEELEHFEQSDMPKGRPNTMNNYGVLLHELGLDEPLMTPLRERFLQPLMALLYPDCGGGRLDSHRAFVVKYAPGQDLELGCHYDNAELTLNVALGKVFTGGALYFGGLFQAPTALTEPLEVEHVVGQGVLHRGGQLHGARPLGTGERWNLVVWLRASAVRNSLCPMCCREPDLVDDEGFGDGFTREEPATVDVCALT
Description: as §1, §3

[14] = biological target: T7, LEPREL2; test: as above; settings: 200 µM free compound B, read-out: Fold change versus DMSO control
Description: as §1, §3

T3 sequence (Q9GZT9 whole entry): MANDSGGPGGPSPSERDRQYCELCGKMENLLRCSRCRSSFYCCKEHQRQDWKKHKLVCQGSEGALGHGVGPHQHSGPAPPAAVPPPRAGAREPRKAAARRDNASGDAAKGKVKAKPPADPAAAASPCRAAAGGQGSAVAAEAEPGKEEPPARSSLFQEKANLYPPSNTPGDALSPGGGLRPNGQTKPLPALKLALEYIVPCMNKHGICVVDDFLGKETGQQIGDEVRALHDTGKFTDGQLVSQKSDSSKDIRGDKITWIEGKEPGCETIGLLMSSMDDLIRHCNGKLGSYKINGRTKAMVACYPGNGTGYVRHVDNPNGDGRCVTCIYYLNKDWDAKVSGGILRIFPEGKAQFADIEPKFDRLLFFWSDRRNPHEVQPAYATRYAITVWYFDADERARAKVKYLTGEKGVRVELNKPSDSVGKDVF
T1 sequence (P13674 18-534): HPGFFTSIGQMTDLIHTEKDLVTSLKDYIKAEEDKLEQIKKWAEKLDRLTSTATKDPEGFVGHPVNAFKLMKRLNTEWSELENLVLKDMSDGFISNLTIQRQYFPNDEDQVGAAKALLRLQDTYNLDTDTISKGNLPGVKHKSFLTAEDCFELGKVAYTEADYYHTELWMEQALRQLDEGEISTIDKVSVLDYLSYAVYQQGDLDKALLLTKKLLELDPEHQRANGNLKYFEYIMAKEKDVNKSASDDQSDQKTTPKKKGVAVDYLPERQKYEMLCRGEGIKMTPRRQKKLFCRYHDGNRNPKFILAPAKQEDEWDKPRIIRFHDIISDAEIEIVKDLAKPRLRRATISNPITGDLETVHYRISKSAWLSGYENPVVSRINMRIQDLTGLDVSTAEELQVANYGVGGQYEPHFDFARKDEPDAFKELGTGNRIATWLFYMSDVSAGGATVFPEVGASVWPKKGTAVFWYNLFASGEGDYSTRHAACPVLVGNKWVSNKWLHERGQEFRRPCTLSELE
T1 sequence (P07237 18-508 partner): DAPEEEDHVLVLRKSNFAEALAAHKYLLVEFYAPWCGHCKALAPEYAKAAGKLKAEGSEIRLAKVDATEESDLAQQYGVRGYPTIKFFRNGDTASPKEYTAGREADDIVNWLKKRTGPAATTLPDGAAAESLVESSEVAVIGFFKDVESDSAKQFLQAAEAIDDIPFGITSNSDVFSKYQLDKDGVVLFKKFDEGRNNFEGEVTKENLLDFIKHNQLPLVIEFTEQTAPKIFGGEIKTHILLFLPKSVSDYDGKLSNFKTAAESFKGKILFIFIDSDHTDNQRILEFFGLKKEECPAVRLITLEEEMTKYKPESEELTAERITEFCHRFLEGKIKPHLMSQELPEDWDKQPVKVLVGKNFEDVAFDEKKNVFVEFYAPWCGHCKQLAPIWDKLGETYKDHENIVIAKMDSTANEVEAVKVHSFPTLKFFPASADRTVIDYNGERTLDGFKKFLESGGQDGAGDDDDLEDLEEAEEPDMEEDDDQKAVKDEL

remaining binding at 200 µM [1] [%]	remaining binding at 200 µM [2] [%]	remaining binding at 200 µM [3] [%]	remaining binding at 200 µM [4] [%]	remaining binding at 200 µM [5] [%]	remaining binding at 200 µM [6] [%]	remaining binding at 200 µM [7] [%]	remaining binding at 200 µM [8] [%]	remaining binding at 200 µM [9] [%]	remaining binding at 200 µM [10] [%]	remaining binding at 200 µM [11] [%]	remaining binding at 200 µM [12] [%]	remaining binding at 200 µM [13] [%]	remaining binding at 200 µM [14] [%]	Structure (SMILES)
10	51	19	24	45	48	12								O=C(O)CNC(=O)C1C(=O)OC(C2CCNCC2)OC1=O (centres unmarked) [compound C, 2-(4,6-dioxo-2-(piperidin-4-yl)-1,3-dioxane-5-carboxamido)acetic acid hydrochloride]
							24	52	52	56	67	18	13	O=C(O)CNC(=O)C1C(=O)OC2(CCCNC2)OC1=O (centres unmarked) [compound B, 2-(2,4-dioxo-1,5-dioxa-8-azaspiro[5.5]undecane-3-carboxamido)acetic acid hydrochloride]

Source: patent EP2505659A1, “Methods for the identification of dioxygenase interacting molecules and for the purification of dioxygenase proteins” (CELLZOME AG, priority 2011, dated 2012)
